Data taken from article PMC11865978, “Cellular Activity of CQWW Nullomer-Derived Peptides” (ACS Omega, 2025).

Legend:
[1] = test system: patient-derived glioblastoma cell lines; assay: Cell survival by nuclei counts, summarised across cell lines; assay type: cell-based, human; settings: ratio of nuclei-count IC50s
Protocol: Peptides were tested in an automated image-based high-content[42] cell painting[43],[44] assay that was originally developed to explore the mechanism of action of pharmacological and genetic perturbations within cells,[45] as well as a live cell imaging assay against six patient-derived glioblastoma cell lines (GCGR-E13, GCGR-E28, GCGR-E21, GCGR-E57, GCGR-E31, and GCGR-E34), covering classical, mesenchymal, and proneural subtypes, respectively (see Methods and Figure 1B–D), along with a healthy human fetal neuronal stem cell line (GCGR-NS9FB_B).
Cell survival was quantified by nuclei counts from the Hoechst dye-stained nuclei and IC50 values calculated along with 95% confidence intervals (Figure 1B; see Table S2 for full details). […]
High Content Phenotypic Screening assays
Cell lines (glioma stem cell lines and normal foetal neural stem cells) were seeded on laminin (10 µg/mL) coated 384-well plates (Greiner Bio-One, 781091) at 1,000 cells/well and incubated overnight at 37 °C and 5% CO2. […]
BSA/PBS. […] The data was then analyzed using a custom CellProfiler software pipeline using the University of Edinburgh high performance computing cluster. Dose response plots were calculated using HC StratomineR (corelifeanalytics.com). Nuclei count data was analyzed separately to generate cell survival metrics (normalized to aqueous glycerol/TX -100 control). […]

GCGR-E13 = assay: Multiparametric cell painting phenotypic profile (PCA); assay type: cell-based, human; settings: 1-16 μM, compared with control polyarginine peptide 15 and DMSO
Protocol: Figure 1 (A) 3D model of the CQWW peptide with residue labels shown in red. (B) Dose-dependent effect of peptide 2 (RRRRRCQWW) on cell survival across a range of cell lines, with fitted IC50 values shown below. (C) Representative live cell brightfield images of peptide 2 (RRRRRCQWW, 6 μM) against the glioblastoma stem cell line (GCGR-E28) versus normal neural stem cells (GCGR-NS9FB_B) after 3 h of incubation. (D) 3D principal component analysis (PCA 1, 2, and 3) from multiparametric cell painting image analysis of the GCGR-E13 cell line. […]
The phenotypic effect of the peptides was visualized by live cell imaging (Figure 1C, IncuCyte live cell imager) and also quantified via image analysis of cells labeled with the cell painting reagents (see Supporting Information) followed by image analysis using Cell Profiler (cellprofiler.org). […]
BSA/PBS. […] The data was then analyzed using a custom CellProfiler software pipeline using the University of Edinburgh high performance computing cluster. Dose response plots were calculated using HC StratomineR (corelifeanalytics.com). Nuclei count data was analyzed separately to generate cell survival metrics (normalized to aqueous glycerol/TX -100 control).
Dose response curves were fitted and IC50 values calculated using Prism GraphPad (graphpad.com). […]

Substance: H-RRRRRCQWW-NH2 [Peptide 2]
- selectivity for reduction in nuclei counts, glioblastoma stem cells compared to normal neural stem cells (GCGR-NS9FB_B) [1]: 1.5- to 2 fold
- phenotypic profile in 3D principal component plot of cell painting features (GCGR-E13): strong, dose-dependent phenotype
